Test results reported in ChEMBL document CHEMBL4219064, “Identification of novel quinazolinedione derivatives as RORγt inverse agonist” (Bioorg Med Chem, 2018).
In brackets after ≈: the same amount, converted by molar mass.

Experiments:
[1] = Kinetic solubility of the compound in second fluid of disintegration test of the Japanese Pharmacopoeia at pH 6.8 by HPLC analysis
[2] = Lipophilicity, log D of the compound at pH 7.4; type: physicochemical; details: buffer
[3] = AUC in rat at 1 mg/kg, po; type: ADME, organism-based; details: in vivo
[4] = Clearance in rat at 1 mg/kg, po or 0.1 mg/kg, iv; type: ADME, organism-based; details: in vivo
[5] = Oral bioavailability in rat at 1 mg/kg; type: ADME, organism-based; details: in vivo
[6] = target: T1, Nuclear receptor ROR-gamma (Homo sapiens, UniProt P51449); test: Displacement of BODIPY-labeled-(R)-N-(2-(3,5-difluoro-4-(trimethylsilyl)phenylamino)-1-(4-(methoxymethyl)phenyl)-2-oxoethyl)-5-(2-((1-(difluoroboryl)-3,5-dimethyl-1H-pyrrol-2-yl)methylene)-2H-pyrrol-5-yl)pentanamide from human His-tagged RORgammat after 20 mins by TR-FRET assay
T1 sequence (P51449 whole entry): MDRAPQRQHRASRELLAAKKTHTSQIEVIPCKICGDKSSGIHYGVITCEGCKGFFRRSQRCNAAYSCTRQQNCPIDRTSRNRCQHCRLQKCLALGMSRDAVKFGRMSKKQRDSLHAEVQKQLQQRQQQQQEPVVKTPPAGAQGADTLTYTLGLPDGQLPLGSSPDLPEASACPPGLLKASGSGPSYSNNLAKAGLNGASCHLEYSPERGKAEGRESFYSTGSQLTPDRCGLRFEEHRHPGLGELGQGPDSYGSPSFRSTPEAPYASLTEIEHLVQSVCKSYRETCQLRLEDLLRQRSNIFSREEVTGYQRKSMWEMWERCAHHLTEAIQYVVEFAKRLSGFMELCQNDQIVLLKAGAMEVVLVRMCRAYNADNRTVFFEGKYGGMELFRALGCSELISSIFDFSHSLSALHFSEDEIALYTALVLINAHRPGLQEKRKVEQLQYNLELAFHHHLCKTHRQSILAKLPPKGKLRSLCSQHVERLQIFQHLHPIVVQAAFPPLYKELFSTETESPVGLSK

[7] = target: T1, Nuclear receptor ROR-gamma; test: Inverse agonist activity at RORgammat (unknown origin) expressed in human Jurkat cells assessed as inhibition of transcriptional activity after overnight incubation by human IL-17 ROR response element driven-bright-glo luciferase reporter gene assay; type: cell-based
Rattus norvegicus = test: In vivo inverse agonist activity at RORgammat in po dosed Lewis rat experimental autoimmune encephalomyelitis model assessed as inhibition of IL-17A mRNA levels in popliteal lymph nodes administered twice daily for 5 days by qRT-PCR analysis; type: functional; details: 120 h, read-out: MED
tissue or blood = details: Rattus norvegicus, Lewis
Description: Inverse agonist activity at RORgammat in Lewis rat whole blood assessed as inhibition of IL-17A production incubated for 1 hr followed by PMA/ionomycin stimulation measured after 24 hrs by ELISA

| AUC [3] [ng·h/mL] | clearance [4] [mL/min/kg] | bioavailability [5] [%] | SMILES | solubility kinetic [1] [µg/mL] | other results |
| --- | --- | --- | --- | --- | --- |
|  |  |  | CCn1c2ccccc2c2cc(NC(=O)CC(C)CC(=O)Nc3ccc(C#N)c(Cl)c3)ccc21 (racemic) | 0.15 (≈ 0.317 µM) | logD [2]: 3.76 |
|  |  |  | CCN1C(=O)COc2cc(NC(=O)CC(C)CC(=O)Nc3ccc(C#N)c(Cl)c3)ccc21 (racemic) | 12 (≈ 26.4 µM) |  |
|  |  |  | CCC1Oc2cc(NC(=O)CC(C)CC(=O)Nc3ccc(C#N)c(Cl)c3)ccc2N(CC)C1=O (racemic) | 5.6 (≈ 11.6 µM) |  |
| 33 | 28.4 | 5.5 | CCn1c(=O)c2cc(NC(=O)CC(C)CC(=O)Nc3ccc(C#N)c(Cl)c3)ccc2n(CC2CC2)c1=O (racemic) |  |  |
|  |  |  | CCN1C(=O)C(C)Oc2cc(NC(=O)CC(C)CC(=O)Nc3ccc(C#N)c(Cl)c3)ccc21 (racemic) | 23 (≈ 49 µM) | logD [2]: 2.66 |
|  |  |  | CCn1c2ccccc2c2cc(NC(=O)CC(C)CC(=O)Nc3ccccc3C#N)ccc21 (racemic) |  | IC50 [6]: > 10 µM; IC50 [7]: > 30 µM |
| 10 | 44 | 2.7 | CCn1c(=O)n(CC2CC2)c(=O)c2cc(NC(=O)CC(C)CC(=O)Nc3ccc(C#N)c(Cl)c3)ccc21 (racemic) |  |  |
|  |  |  | CC(CC(=O)Nc1ccc(C#N)cc1)CC(=O)Nc1ccc2[nH]c3c(c2c1)CCCC3 (racemic) | 0.19 (≈ 0.458 µM) |  |
|  |  |  | CCn1c2c(c3cc(NC(=O)CC(C)CC(=O)Nc4ccc(C#N)cc4)ccc31)CCCC2 (racemic) | 0.06 (≈ 0.136 µM) |  |
|  |  |  | CCn1c(=O)oc2cc(NC(=O)CC(C)CC(=O)Nc3ccc(C#N)c(Cl)c3)ccc21 (racemic) | 0.9 (≈ 2.04 µM) |  |
|  |  |  | CCn1ccc2cc(NC(=O)CC(C)CC(=O)Nc3ccc(C#N)c(Cl)c3)ccc21 (racemic) | 0.1 (≈ 0.236 µM) |  |
| 106 | 11.2 | 7.1 | CC(CC(=O)Nc1ccc(C#N)c(Cl)c1)CC(=O)Nc1ccc2c(c1)c(=O)n(CC1CC1)c(=O)n2CC1CC1 (racemic) |  | minimal effective dose (Rattus norvegicus): 100 mg/kg; IC50 (tissue or blood): 0.057 µM |

| SMILES | AUC [3] [ng·h/mL] | clearance [4] [mL/min/kg] | bioavailability [5] [%] | solubility kinetic [1] [µg/mL] | other results |
| --- | --- | --- | --- | --- | --- |
| CCn1c(=O)c2cc(NC(=O)CC(C)CC(=O)Nc3ccc(C#N)c(Cl)c3)ccc2n(CC)c1=O (racemic) | 39 | 26.8 | 6.2 | 42 (≈ 84.7 µM) | logD [2]: 2.99 |
